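1) Cells in 96-well plates. 2) Compound, 48 h, 5 concentrations. 3) Linear interpolation between surrounding doses. 4) Unreached endpoint = highest concentration. GI50 = concentration required for 50% inhibition of growth.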 Calls of active or inactive are those of the source. Rule as the data show it: active = GI50 up to about 1.1 µM and inactive = higher.
What was measured:
Test in all cases: inhibition of tumour cell growth, NCI panel, 48 h
786-0 = tested on: 786-0
A498 = tested on: A498
A549 = tested on: A549
ACHN = tested on: ACHN
CAKI-1 = tested on: CAKI-1
CCRF-CEM = tested on: CCRF-CEM
COLO 205 = tested on: COLO 205
DU-145 = tested on: DU-145
EKVX = tested on: EKVX
HCC 2998 = tested on: HCC 2998
HCT-116 = tested on: HCT-116
HCT-15 = tested on: HCT-15
HL-60 = tested on: HL-60
HOP-62 = tested on: HOP-62
HT-29 = tested on: HT-29
Hs-578T = tested on: Hs-578T
IGROV-1 = tested on: IGROV-1
K562 = tested on: K562
KM12 = tested on: KM12
LOX IMVI = tested on: LOX IMVI
M14 = tested on: M14
MCF7 = tested on: MCF7
MDA-MB-231 = tested on: MDA-MB-231
MDA-MB-435 = tested on: MDA-MB-435
MDA-N = tested on: MDA-N
MOLT-4 = tested on: MOLT-4
Malme-3M = tested on: Malme-3M
NCI-H226 = tested on: NCI-H226
NCI-H23 = tested on: NCI-H23
NCI-H460 = tested on: NCI-H460
NCI-H522 = tested on: NCI-H522
NCI/ADR-RES = tested on: NCI/ADR-RES
OVCAR-3 = tested on: OVCAR-3
OVCAR-4 = tested on: OVCAR-4
OVCAR-5 = tested on: OVCAR-5
OVCAR-8 = tested on: OVCAR-8
PC-3 = tested on: PC-3
RPMI-8226 = tested on: RPMI-8226
RXF 393 = tested on: RXF 393
SF-268 = tested on: SF-268
SF-295 = tested on: SF-295
SF-539 = tested on: SF-539
SK-MEL-28 = tested on: SK-MEL-28
SK-MEL-2 = tested on: SK-MEL-2
SK-MEL-5 = tested on: SK-MEL-5
SK-OV-3 = tested on: SK-OV-3
SN12C = tested on: SN12C
SNB-19 = tested on: SNB-19
SNB-75 = tested on: SNB-75
SR = tested on: SR
SW-620 = tested on: SW-620
T47D = tested on: T47D
TK-10 = tested on: TK-10
U-251 = tested on: U-251
UACC-257 = tested on: UACC-257
UACC-62 = tested on: UACC-62
UO-31 = tested on: UO-31
HOP-92 = tested on: HOP-92

C=C(Br)CNCC(=C)Br
GI50 (786-0): > 100 µM (inactive) | GI50 (A498): > 100 µM (inactive) | GI50 (A549): > 100 µM (inactive) | GI50 (ACHN): > 100 µM (inactive) | GI50 (CAKI-1): > 100 µM (inactive) | GI50 (CCRF-CEM): 76.2 µM (inactive) | GI50 (COLO 205): 52 µM (inactive) | GI50 (DU-145): > 100 µM (inactive) | GI50 (EKVX): > 100 µM (inactive) | GI50 (HCC 2998): > 100 µM (inactive) | GI50 (HCT-116): 68.1 µM (inactive) | GI50 (HCT-15): > 100 µM | GI50 (HL-60): 26.7 µM (inactive) | GI50 (HOP-62): > 100 µM (inactive) | GI50 (HT-29): 90.6 µM (inactive) | GI50 (Hs-578T): > 100 µM (inactive) | GI50 (IGROV-1): > 100 µM (inactive) | GI50 (K562): 38 µM (inactive) | GI50 (KM12): > 100 µM (inactive) | GI50 (LOX IMVI): > 100 µM (inactive) | GI50 (M14): > 100 µM (inactive) | GI50 (MCF7): > 100 µM (inactive) | GI50 (MDA-MB-231): > 100 µM (inactive) | GI50 (MDA-MB-435): > 100 µM (inactive) | GI50 (MDA-N): > 100 µM (inactive) | GI50 (MOLT-4): 48.6 µM (inactive) | GI50 (Malme-3M): 93.1 µM (inactive) | GI50 (NCI-H226): > 100 µM (inactive) | GI50 (NCI-H23): > 100 µM (inactive) | GI50 (NCI-H460): > 100 µM (inactive) | GI50 (NCI-H522): > 100 µM (inactive) | GI50 (NCI/ADR-RES): > 100 µM (inactive) | GI50 (OVCAR-3): 30.8 µM (inactive) | GI50 (OVCAR-4): > 100 µM (inactive) | GI50 (OVCAR-5): > 100 µM (inactive) | GI50 (OVCAR-8): > 100 µM (inactive) | GI50 (PC-3): 50.5 µM (inactive) | GI50 (RPMI-8226): 51.9 µM (inactive) | GI50 (RXF 393): > 100 µM (inactive) | GI50 (SF-268): > 100 µM (inactive) | GI50 (SF-295): > 100 µM (inactive) | GI50 (SF-539): > 100 µM (inactive) | GI50 (SK-MEL-28): > 100 µM (inactive) | GI50 (SK-MEL-2): > 100 µM (inactive) | GI50 (SK-MEL-5): 89.7 µM (inactive) | GI50 (SK-OV-3): > 100 µM (inactive) | GI50 (SN12C): > 100 µM (inactive) | GI50 (SNB-19): > 100 µM (inactive) | GI50 (SNB-75): 68.5 µM (inactive) | GI50 (SR): > 100 µM (inactive) | GI50 (SW-620): > 100 µM (inactive) | GI50 (T47D): > 100 µM (inactive) | GI50 (TK-10): > 100 µM (inactive) | GI50 (U-251): > 100 µM (inactive) | GI50 (UACC-257): 29 µM (inactive) | GI50 (UACC-62): > 100 µM (inactive) | GI50 (UO-31): > 100 µM (inactive)

CSC(SC)=C(C(=O)c1ccc(Cl)cc1)n1c(=O)sc2cc(Br)ccc21
GI50 (786-0): > 100 µM (inactive) | GI50 (A498): > 100 µM (inactive) | GI50 (A549): > 100 µM (inactive) | GI50 (ACHN): > 100 µM (inactive) | GI50 (CAKI-1): 23.1 µM (inactive) | GI50 (CCRF-CEM): 69.2 µM (inactive) | GI50 (COLO 205): 66.4 µM (inactive) | GI50 (DU-145): > 100 µM (inactive) | GI50 (EKVX): > 100 µM (inactive) | GI50 (HCC 2998): > 100 µM (inactive) | GI50 (HCT-116): 51.3 µM (inactive) | GI50 (HCT-15): > 100 µM | GI50 (HL-60): > 100 µM (inactive) | GI50 (HOP-62): > 100 µM (inactive) | GI50 (HOP-92): 31.5 µM (inactive) | GI50 (HT-29): 98.6 µM (inactive) | GI50 (Hs-578T): > 100 µM (inactive) | GI50 (IGROV-1): > 100 µM (inactive) | GI50 (K562): 36.5 µM (inactive) | GI50 (KM12): > 100 µM (inactive) | GI50 (LOX IMVI): > 100 µM (inactive) | GI50 (M14): > 100 µM (inactive) | GI50 (MCF7): > 100 µM (inactive) | GI50 (MDA-MB-231): > 100 µM (inactive) | GI50 (MDA-MB-435): > 100 µM (inactive) | GI50 (MDA-N): > 100 µM (inactive) | GI50 (MOLT-4): 18.7 µM (inactive) | GI50 (Malme-3M): > 100 µM (inactive) | GI50 (NCI-H226): > 100 µM (inactive) | GI50 (NCI-H23): > 100 µM (inactive) | GI50 (NCI-H460): > 100 µM (inactive) | GI50 (NCI-H522): > 100 µM (inactive) | GI50 (NCI/ADR-RES): > 100 µM (inactive) | GI50 (OVCAR-3): > 100 µM (inactive) | GI50 (OVCAR-4): 50.8 µM (inactive) | GI50 (OVCAR-5): > 100 µM (inactive) | GI50 (OVCAR-8): > 100 µM (inactive) | GI50 (PC-3): > 100 µM (inactive) | GI50 (RPMI-8226): > 100 µM (inactive) | GI50 (RXF 393): > 100 µM (inactive) | GI50 (SF-268): > 100 µM (inactive) | GI50 (SF-295): > 100 µM (inactive) | GI50 (SF-539): > 100 µM (inactive) | GI50 (SK-MEL-28): > 100 µM (inactive) | GI50 (SK-MEL-2): > 100 µM (inactive) | GI50 (SK-MEL-5): > 100 µM (inactive) | GI50 (SK-OV-3): > 100 µM (inactive) | GI50 (SN12C): > 100 µM (inactive) | GI50 (SNB-19): > 100 µM (inactive) | GI50 (SW-620): > 100 µM (inactive) | GI50 (T47D): > 100 µM (inactive) | GI50 (TK-10): > 100 µM (inactive) | GI50 (U-251): > 100 µM (inactive) | GI50 (UACC-257): > 100 µM (inactive) | GI50 (UACC-62): > 100 µM (inactive) | GI50 (UO-31): > 100 µM (inactive)

Source: ChEMBL document CHEMBL1201862, “PubChem BioAssay data set” (2004)
